Reference: patent US20230123334A1, “AMINO LIPID COMPOUND, PREPARATION METHOD THEREFOR, AND APPLICATION THEREOF” (SHENZHEN SHENXIN BIOTECHNOLOGY CO., LTD., priority 2020, published 2023)

Tested on: HEK293 cells
Assay: Preliminary screening as mRNA vectors, EGFP mRNA transfection of HEK293 cells
Format: cell-based
Conditions: EGFP mRNA 50 ng per well, 96-well plates; percentage of GFP fluorescent cells relative to total number of cells (Hoechst)
Summary of the method: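 HEK293 cells in DMEM plus 10% FBS transfected in 96-well format with 50 ng EGFP mRNA per well; Lipofectamine2000 served as positive control. Read-out is the percentage of GFP-fluorescent cells among total cells, counted by Hoechst nuclear stain.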

In order of rising “Absolute mRNA transfection efficiency in HEK293 cells” value:
1. CCCCCCCCCCCCCCCCCCNc1nc(NCCN2CCN(C)CC2)nc(SCCCCCCCCCCCCCCCCCC)n1 [Compound D5S18N18]  0.0%
2. CCCCCCNc1nc(NCCCN(C)C)nc(SCCCCCC)n1 [Compound D6S6N6]  0.0%
3. CCCCCCCCCCCCCCCCSc1nc(NCCCCCCCCCCCCCCC)nc(NCCN2CCN(C)CC2)n1 [Compound D5S16N15]  0.1%
4. CCCCCCCCCCCCCCCCNc1nc(NCCN2CCN(C)CC2)nc(SCCCCCCCCCCCCCCCC)n1 [Compound D5S16N16]  0.1%
5. CCCCCCCCCCCCCCCCCCSc1nc(NCCCCCCCCCCCCCCC)nc(NCCN2CCN(C)CC2)n1 [Compound D5S18N15]  0.1%
6. CCCCCCCCCCCCCCCCCCSc1nc(NCCCCCCCCCCCCCCCC)nc(NCCN2CCN(C)CC2)n1 [Compound D5S18N16]  0.1%
7. CCCCCCCCCCCCCCCCCCNc1nc(NCCN2CCN(C)CC2)nc(SCCCCCCCCCCCCCCCC)n1 [Compound D5S16N18]  0.2%
8. CCCCCCCNc1nc(NCCCN(C)C)nc(SCCCCCC)n1 [Compound D6S6N7]  0.2%
9. CCCCCCCCCCCCCCCNc1nc(NCCN2CCN(C)CC2)nc(SCCCCCCCCCCCCCC)n1 [Compound D5S14N15]  0.3%
10. CCCCCCCCCNc1nc(NCCCN(C)C)nc(SCCCCCC)n1 [Compound D6S6N9]  0.3%
11. CCCCCCCCNc1nc(NCCCN(C)C)nc(SCCCCCC)n1 [Compound D6S6N8]  0.4%
12. CCCCCCCCCCCCCCCCNc1nc(NCCN2CCN(C)CC2)nc(SCCCCCCCCCCCCCC)n1 [Compound D5S14N16]  0.6%
13. CCCCCCCCCCCCCCCCCCNc1nc(NCCN2CCN(C)CC2)nc(SCCCCCCCCCCCCCC)n1 [Compound D5S14N18]  0.6%
14. CCCCCCCCCCCCCCCNc1nc(NCCN2CCN(C)CC2)nc(SCCCCCCCCCCCCCCC)n1 [Compound D5S15N15]  0.7%
15. CCCCCCCCCCCCCCCCSc1nc(NCCCCCCCCCCCCC)nc(NCCN2CCN(C)CC2)n1 [Compound D5S16N13]  0.7%
16. CCCCCCCCCCCCCCCCCCSc1nc(NCCCCCCCCCCC)nc(NCCN2CCN(C)CC2)n1 [Compound D5S18N11]  1.1%
17. CCCCCCCCCCCCCCCCNc1nc(NCCN2CCN(C)CC2)nc(SCCCCCCCCCCCCCCC)n1 [Compound D5S15N16]  1.4%
18. CCCCCCCCCCCCCCCCCCSc1nc(NCCCCCCCCCCCCC)nc(NCCN2CCN(C)CC2)n1 [Compound D5S18N13]  1.4%
19. CCCCCCCCCCCCCCCSc1nc(NCCCCCCCCCCCCC)nc(NCCN2CCN(C)CC2)n1 [Compound D5S15N13]  1.5%
20. CCCCCCCCCCCCCCCCCCNc1nc(NCCN2CCN(C)CC2)nc(SCCCCCCCCCCCCCCC)n1 [Compound D5S15N18]  1.7%
21. CCCCCCCCCCCCCCCCCCSc1nc(NCCCCCCCCCCCC)nc(NCCN2CCN(C)CC2)n1 [Compound D5S18N12]  1.7%
22. CCCCCCCNc1nc(NCCCN(C)C)nc(SCCCCCCC)n1 [Compound D6S7N7]  1.8%
23. CCCCCCCCCCCNc1nc(NCCCN(C)C)nc(SCCCCCC)n1 [Compound D6S6N11]  2.5%
24. CCCCCCCCNc1nc(NCCCN(C)C)nc(SCCCCCCC)n1 [Compound D6S7N8]  2.8%
25. CCCCCCCCCCCCCNc1nc(NCCCN(C)C)nc(SCCCCCC)n1 [Compound D6S6N13]  3.0%
26. CCCCCCCCCCCCCCCCSc1nc(NCCCCCCCCCCCC)nc(NCCN2CCN(C)CC2)n1 [Compound D5S16N12]  3.4%
27. CCCCCCCCCCCCNc1nc(NCCCN(C)C)nc(SCCCCCC)n1 [Compound D6S6N12]  3.5%
28. CCCCCCCCCCCCCCCSc1nc(NCCCCCCCCCCCC)nc(NCCN2CCN(C)CC2)n1 [Compound D5S15N12]  4.3%
29. CCCCCCCCCNc1nc(NCCCN(C)C)nc(SCCCCCCC)n1 [Compound D6S7N9]  5.9%
30. CCCCCCCSc1nc(NCCCCCC)nc(NCCCN(C)C)n1 [Compound D6S7N6]  8.8%
31. CCCCCCCCCSc1nc(NCCCN(C)C)nc(SCCCCCC)n1 [Compound D6S6S9]  10.6%
32. CCCCCCCSc1nc(NCCCN(C)C)nc(SCCCCCC)n1 [Compound D6S6S7]  11.3%
33. CCCCCCCCCCCCCCCCCCSc1nc(NCCCCCCCCC)nc(NCCN2CCN(C)CC2)n1 [Compound D5S18N9]  11.6%
34. CCCCCCCCCCCCCCCNc1nc(NCCCN(C)C)nc(SCCCCCC)n1 [Compound D6S6N15]  12.1%
35. CCCCCCCCCCCCNc1nc(NCCCN(C)C)nc(SCCCCCCC)n1 [Compound D6S7N12]  12.5%
36. CCCCCCSc1nc(NCCCN(C)C)nc(SCCCCCC)n1 [Compound D6S6S6]  12.6%
37. CCCCCCCCCCCCCCCSc1nc(NCCCCCCCCCCC)nc(NCCN2CCN(C)CC2)n1 [Compound D5S15N11]  12.7%
38. CCCCCCCCCCCCCCSc1nc(NCCCCCCCCCCCCC)nc(NCCN2CCN(C)CC2)n1 [Compound D5S14N13]  12.9%
39. CCCCCCCCCCCSc1nc(NCCCN(C)C)nc(SCCCCCC)n1 [Compound D6S6S11]  15.7%
40. CCCCCCCCCCCNc1nc(NCCCN(C)C)nc(SCCCCCCC)n1 [Compound D6S7N11]  18.9%
41. CCCCCCCCSc1nc(NCCCN(C)C)nc(SCCCCCC)n1 [Compound D6S6S8]  21.1%
42. CCCCCCCCCCCCCCCSc1nc(NCCCCCCCCC)nc(NCCN2CCN(C)CC2)n1 [Compound D5S15N9]  22.3%
43. CCCCCCCCCCCCSc1nc(NCCCN(C)C)nc(SCCCCCC)n1 [Compound D6S6S12]  24.7%
44. CCCCCCCCCCCCCCCSc1nc(NCCCCCCC)nc(NCCN2CCN(C)CC2)n1 [Compound D5S15N7]  25.2%
45. CCCCCCCCCCSc1nc(NCCCN(C)C)nc(SCCCCCC)n1 [Compound D6S6S10]  31.4%
46. CCCCCCCCCCCCCCCCCCSc1nc(NCCCCCCCC)nc(NCCN2CCN(C)CC2)n1 [Compound D5S18N8]  33.4%
47. CCCCCCCCCCCCCCCCSc1nc(NCCCN(C)C)nc(SCCCCCC)n1 [Compound D6S6S16]  34.4%
48. CCCCCCCCCCCCCCCCNc1nc(NCCCN(C)C)nc(SCCCCCC)n1 [Compound D6S6N16]  40.4%
49. CCCCCCCCCCCCCCCCSc1nc(NCCCCCCCCCCC)nc(NCCN2CCN(C)CC2)n1 [Compound D5S16N11]  45.0%
50. CCCCCCCCCCCCCCCSc1nc(NCCCCCC)nc(NCCN2CCN(C)CC2)n1 [Compound D5S15N6]  45.9%
51. CCCCCCCCCCCCCCCSc1nc(NCCCN(C)C)nc(SCCCCCC)n1 [Compound D6S6S15]  47.0%
52. CCCCCCCCCCCCCCCCCCNc1nc(NCCCN(C)C)nc(SCCCCCC)n1 [Compound D6S6N18]  60.1%
53. CCCCCCCCCCCCCCSc1nc(NCCCN(C)C)nc(SCCCCCC)n1 [Compound D6S6S14]  62.8%
54. CCCCCCCCCCCCCCCCSc1nc(NCCCCCC)nc(NCCN2CCN(C)CC2)n1 [Compound D5S16N6]  63.2%
55. CCCCCCCCCCCCCCCCCCSc1nc(NCCCCCCC)nc(NCCN2CCN(C)CC2)n1 [Compound D5S18N7]  67.7%
56. CCCCCCCCCCCCCCCCSc1nc(NCCCCCCCCC)nc(NCCN2CCN(C)CC2)n1 [Compound D5S16N9]  68.1%
57. CCCCCCCCCCCCCCCCSc1nc(NCCCCCCCC)nc(NCCN2CCN(C)CC2)n1 [Compound D5S16N8]  72.2%
58. CCCCCCCCCCCCCCCCCCSc1nc(NCCCCCC)nc(NCCN2CCN(C)CC2)n1 [Compound D5S18N6]  73.2%
59. CCCCCCCCCCCCCCCCSc1nc(NCCCCCCC)nc(NCCN2CCN(C)CC2)n1 [Compound D5S16N7]  82.6%
60. CCCCCCCCCCCCCCCCCCSc1nc(NCCCN(C)C)nc(SCCCCCC)n1 [Compound D6S6S18]  83.3%
61. CCCCCCCCCCCCCCCSc1nc(NCCCCCCCC)nc(NCCN2CCN(C)CC2)n1 [Compound D5S15N8]  94.7%
